Source: paper PMC12078333, “Pharmacokinetic evaluation and bioavailability of KPT-335 (Verdinexor) in cats” (Frontiers in Veterinary Science, 2025)
Where two headings read alike, the source gives them in different places.

Assay: Pharmacokinetics study of KPT-335 in cats (i.v. injection, p.o. capsules and tablets; UPLC-MS/MS, non-compartmental analysis)
Assay type: in vivo
Settings: both sexes, plasma, cats; for AUC(0-t): read-out: AUClast; for AUC(0-inf): read-out: AUCINF_obs; for Cmax: read-out: Cmax
Method: In this study, a parallel trial design was employed, 42 adult domestic cats (21 males and 21 females), aged 1 to 2 years and weighing 2.5 ± 0.25 kg. Cats were grouped by random number, with half male and female in each group, and all cats were determined to be systemically healthy during an initial screening visit 1 week prior to the experiment. They were acclimatized to the laboratory environment for 7 days before the study commenced. During this period, they were kept in solitary cages with free access to water. Cats in the fasting group were deprived of food for 12 h prior to and 2 h following drug administration, while those in the feeding group were fed twice a day. Food and water sources were consistent throughout the trail. During and at the end of the experiment, we systematically assessed the adverse reactions by recording parameters such as body weight, behavior, and coat gloss in all test cats both before and after the trial. These observations were conducted to evaluate whether any adverse reactions occurred. All procedures were reviewed and approved by the Institutional Animal Care and Use Committee of China Agricultural University (11305-23-E-002).
The UPLC-MS/MS system utilized a UPLC 1290 (Agilent) paired with a Phenomenex Kinetex C18 column (50 mm × 2.1 mm, 2.6 μm) for separation at a flow rate of 0.3 mL/min. The chromatographic mobile phase comprised water (A) and acetonitrile (B), both containing 0.1% formic acid. The gradient elution program was as follows: from 0.5 to 2.5 min, 10 to 95% B; from 2.5 to 4.5 min, 95% B; from 4.5 to 4.6 min, 95 to 10% B; and from 4.6 to 6.0 min, 10% B. The injection volume was 2 μL.
For mass spectrometry, an Agilent 6,475-LC-TQ equipped with an electrospray ion source was used. Multiple Reaction Monitoring (MRM) was selected to quantify KPT-335 in the positive ion mode. The ion transitions monitored were m/z 443.1 → 334.0 and 443.1 → 110.1 for KPT-335, and m/z 444.1 → 334.0 for the internal standard (IS). The cone voltage and collision energy were optimized for KPT-335 and the IS individually, set at 160 V and 25 eV, respectively. The optimized parameters for the instrument included an ion source temperature of 350°C, solvent removal temperature of 320°C, capillary voltage of 3.0 kV, and a solvent gas flow rate of 300 L/h.
The method was developed based on prior research conducted in the laboratory ([16]) and validated in accordance with international guidelines ([17]). The calibration concentration range for KPT-335 spanned from 0.5 to 100 ng/mL, with a lower limit of quantification (LLOQ) set at 0.5 ng/mL. The squared correlation coefficient (R^2) values exceeded 0.999, indicating high linearity.
For sample preparation, 100 μL of plasma was mixed with 10 μL of internal standard (IS) and 900 μL of acetonitrile, followed by vortexing for 2 min. The mixture was then centrifuged at 13,400 × g at 4°C for 10 min. The supernatant was filtered through a 0.22 μm organic membrane, and the resulting sample was analyzed using UPLC-MS/MS.
Cats were divided into seven groups, with six cats in each group. In the intravenous (i.v.) group (Group 1), cats received an injection of KPT-335 at a dosage of 1 mg/kg body weight (BW), administered via a bolus through a venous infusion needle. For the oral (p.o.) administration, cats were given capsules in a fasting state at doses of 0.2 mg/kg BW (Group 2), 1 mg/kg BW (Group 3), and 2 mg/kg BW (Group 4). Additionally, tablets were administered at 1 mg/kg BW (fasting, Group 5), 1 mg/kg BW (Group 6), and 2 mg/kg BW (Group 7) in a feeding state, followed by 3 mL of water delivered with a syringe.
For the p.o. administration, blood samples of 1.5 mL were collected via the brachial cephalic vein prior to administration and at 0.167, 0.333, 0.5, 0.75, 1, 1.5, 2, 4, 6, 8, 12, 24, 32, and 48 h post-administration. […]

[1] = cat, iv, 1 mg/kg, i.v. 1 mg/kg BW, mean, read-out: Plasma concentration Mean
[2] = cat, iv, 1 mg/kg, i.v. 1 mg/kg BW, mean
[3] = cat, po, 0.2 mg/kg, capsule p.o. 0.2 mg/kg BW, mean, read-out: Plasma concentration Mean
[4] = cat, po, 0.2 mg/kg, capsule p.o. 0.2 mg/kg BW, mean
[5] = cat, po, 1 mg/kg, capsule p.o. 1 mg/kg BW, mean, read-out: Plasma concentration Mean
[6] = cat, po, 1 mg/kg, capsule p.o. 1 mg/kg BW, mean
[7] = cat, po, 1 mg/kg, capsule p.o. 1 mg/kg BW, individual cats 1-6, read-out: Plasma concentration
[8] = cat, po, 1 mg/kg, tablet p.o. 1 mg/kg BW after fasting, individual cats 1-6, read-out: Plasma concentration
[9] = cat, po, 1 mg/kg, tablet p.o. 1 mg/kg BW after fasting, mean, read-out: Plasma concentration Mean
[10] = cat, po, 1 mg/kg, tablet p.o. 1 mg/kg BW after fasting, mean
[11] = cat, po, 1 mg/kg, tablet p.o. 1 mg/kg BW after feeding, mean, read-out: Plasma concentration Mean
[12] = cat, po, 1 mg/kg, tablet p.o. 1 mg/kg BW after feeding, mean
[13] = cat, po, 2 mg/kg, capsule p.o. 2 mg/kg BW, mean, read-out: Plasma concentration Mean
[14] = cat, po, 2 mg/kg, capsule p.o. 2 mg/kg BW, mean
[15] = cat, po, 2 mg/kg, tablet p.o. 2 mg/kg BW after feeding, mean, read-out: Plasma concentration Mean
[16] = cat, po, 2 mg/kg, tablet p.o. 2 mg/kg BW after feeding, mean
[17] = cat, po, 2 mg/kg, tablet p.o. 2 mg/kg BW after feeding, individual cats 1-6, read-out: Plasma concentration
[18] = iv, 1 mg/kg, i.v., Injection, 1 mg/kg BW
[19] = po, 0.2 mg/kg, p.o., Capsule, Fasting, 0.2 mg/kg BW

O=C(/C=C\n1cnc(-c2cc(C(F)(F)F)cc(C(F)(F)F)c2)n1)NNc1ccccn1 [KPT-335]
concentration at 0.083 h (cat, iv, 1 mg/kg, i.v. 1 mg/kg BW, 0.083 h, mean): 844 ng/mL
concentration at 0.167 h [1]: 812 ng/mL
concentration at 0.25 h (cat, iv, 1 mg/kg, i.v. 1 mg/kg BW, 0.25 h, mean): 767 ng/mL
concentration at 0.33 h [2]: 733 ng/mL
concentration at 0.5 h [2]: 667 ng/mL
concentration at 0.75 h [2]: 526 ng/mL
concentration at 1 h [1]: 531 ng/mL
concentration at 2 h [1]: 441 ng/mL
concentration at 4 h [1]: 255 ng/mL
concentration at 8 h [2]: 95.9 ng/mL
concentration at 12 h [2]: 39.5 ng/mL
concentration at 24 h [2]: 10.2 ng/mL
concentration at 32 h [2]: 4.86 ng/mL
half-life (cat, other: i.v. and p.o., i.v. and p.o. routes, all groups, read-out: half-life (T1/2), range over all groups): 3.5 to 7 h
concentration at 0.167 h [3]: 1.34 ng/mL
concentration at 0.33 h [4]: 6.56 ng/mL
concentration at 0.5 h [4]: 13.6 ng/mL
concentration at 0.75 h [4]: 20.8 ng/mL
concentration at 1 h [3]: 21.5 ng/mL
concentration at 1.5 h [3]: 22.9 ng/mL
concentration at 2 h [3]: 22.4 ng/mL
concentration at 4 h [3]: 17.9 ng/mL
concentration at 6 h [4]: 15.5 ng/mL
concentration at 8 h [4]: 13.9 ng/mL
concentration at 12 h [4]: 9.36 ng/mL
concentration at 24 h [4]: 3.49 ng/mL
concentration at 32 h [4]: 3.58 ng/mL
concentration at 0.167 h [5]: 4.97 ng/mL
concentration at 0.33 h [6]: 39.5 ng/mL
concentration at 0.5 h [6]: 100 ng/mL
concentration at 0.75 h [6]: 174 ng/mL
concentration at 1 h [7]: 161 ng/mL
concentration at 1 h [5]: 233 ng/mL
concentration at 1.5 h [5]: 250 ng/mL
concentration at 2 h [5]: 227 ng/mL
concentration at 4 h [5]: 153 ng/mL
concentration at 6 h [6]: 79.2 ng/mL
concentration at 8 h [6]: 53.1 ng/mL
concentration at 12 h [6]: 24.6 ng/mL
concentration at 24 h [6]: 5.57 ng/mL
concentration at 32 h [6]: 1.82 ng/mL
concentration at 48 h [7]: 0.69 ng/mL
concentration at 48 h [5]: 0.84 ng/mL
AUC(0-t) (cat, po, 1 mg/kg, p.o., Tablet, Feeding, 1 mg/kg BW): 2270 ± 1250 ng·h/mL
concentration at 0.167 h [8]: 5.51 ng/mL
concentration at 0.167 h [9]: 5.66 ng/mL
concentration at 0.33 h [10]: 77.5 ng/mL
concentration at 0.5 h [10]: 204 ng/mL
concentration at 0.75 h [10]: 223 ng/mL
concentration at 1 h [9]: 227 ng/mL
concentration at 1.5 h [9]: 235 ng/mL
concentration at 2 h [8]: 208 ng/mL
concentration at 2 h [9]: 216 ng/mL
concentration at 4 h [8]: 209 ng/mL
concentration at 4 h [9]: 187 ng/mL
concentration at 6 h [10]: 154 ng/mL
concentration at 8 h [10]: 121 ng/mL
concentration at 12 h [10]: 74.1 ng/mL
concentration at 24 h [10]: 15.5 ng/mL
concentration at 32 h [10]: 5.11 ng/mL
concentration at 48 h [9]: 2.26 ng/mL
concentration at 0.167 h [11]: 13.8 ng/mL
concentration at 0.33 h [12]: 79.1 ng/mL
concentration at 0.5 h [12]: 148 ng/mL
concentration at 0.75 h [12]: 257 ng/mL
concentration at 1 h [11]: 334 ng/mL
concentration at 1.5 h [11]: 321 ng/mL
concentration at 2 h [11]: 304 ng/mL
concentration at 4 h [11]: 211 ng/mL
concentration at 6 h [12]: 146 ng/mL
concentration at 8 h [12]: 107 ng/mL
concentration at 12 h [12]: 52.1 ng/mL
concentration at 24 h [12]: 7.74 ng/mL
concentration at 32 h [12]: 3.37 ng/mL
concentration at 48 h [11]: 1.25 ng/mL
concentration at 0.167 h [13]: 0.68 ng/mL
concentration at 0.33 h [14]: 8.76 ng/mL
concentration at 0.5 h [14]: 52.5 ng/mL
concentration at 0.75 h [14]: 152 ng/mL
concentration at 1 h [13]: 206 ng/mL
concentration at 1.5 h [13]: 272 ng/mL
concentration at 2 h [13]: 269 ng/mL
concentration at 4 h [13]: 187 ng/mL
concentration at 6 h [14]: 111 ng/mL
concentration at 8 h [14]: 74.1 ng/mL
concentration at 12 h [14]: 40.1 ng/mL
concentration at 24 h [14]: 9.56 ng/mL
concentration at 32 h [14]: 4.07 ng/mL
concentration at 48 h [13]: 1.28 ng/mL
AUC(0-t) (cat, po, 2 mg/kg, p.o., Tablet, Feeding, 2 mg/kg BW): 3000 ng·h/mL
concentration at 0.167 h [15]: 16.9 ng/mL
concentration at 0.33 h [16]: 95.9 ng/mL
concentration at 0.5 h [16]: 222 ng/mL
concentration at 0.75 h [16]: 389 ng/mL
concentration at 1 h [17]: 288 ng/mL
concentration at 1 h [15]: 464 ng/mL
concentration at 1.5 h [17]: 366 ng/mL
concentration at 1.5 h [15]: 555 ng/mL
concentration at 2 h [17]: 303 ng/mL
concentration at 2 h [15]: 516 ng/mL
concentration at 4 h [15]: 333 ng/mL
concentration at 6 h [16]: 187 ng/mL
concentration at 8 h [16]: 126 ng/mL
concentration at 12 h [16]: 45 ng/mL
concentration at 24 h [16]: 6.55 ng/mL
concentration at 32 h [16]: 2.28 ng/mL
Tmax (cat, po, all p.o. groups, read-out: Tmax after oral (p.o.) administration): 1 to 2.5 h
bioavailability (cat, po, p.o. capsules 0.2–2 mg/kg BW, read-out: absolute bioavailability, capsule group range): 28.9 to 44.7%
bioavailability (cat, po, p.o. tablets 1–2 mg/kg BW, read-out: absolute bioavailability, tablet group range): 47.3 to 75.9%
MRT last (iv, 1 mg/kg, Injection, 1 mg/kg BW): 4.73 ± 1.1 h
AUC(0-inf) [18]: 3200 ± 851 ng·h/mL
AUC(0-t) [18]: 3170 ± 842 ng·h/mL
Cmax [18]: 851 ± 285 ng/mL
k el (iv, 1 mg/kg, i.v., Injection, 1 mg/kg BW, read-out: Lambda_z (converted)): 5e-05 s⁻¹
MRT last (po, 0.2 mg/kg, Capsule, Fasting, 0.2 mg/kg BW): 8.66 ± 2.71 h
AUC(0-inf) [19]: 314 ± 220 ng·h/mL
AUC(0-t) [19]: 278 ± 158 ng·h/mL
Cmax [19]: 27.6 ± 9.02 ng/mL
